The results in this text go back to patent publication US20170239237A1, “PYRROLOQUINOLINE DERIVATIVES AS 5-HT6 ANTAGONISTS, PREPARATION METHOD AND USE THEREOF” (Uniwersytet Jagiellonski, priority 2013, published 2017).

Marks after values point to notes of the source that are not given here.

One assay addresses 5-HT6 receptor (Homo sapiens, UniProt P50406). Nature of the assay: Radioligand binding, 5-HT6 ([3H]-LSD displacement). The conditions noted are these: for displacement % at 10^−6M, 5-HT6: values marked c in the 5-HT6 column.
The next assay deals with T1, 5-HT1A receptor (Homo sapiens, UniProt P08908).
T1 sequence (P08908 1-422): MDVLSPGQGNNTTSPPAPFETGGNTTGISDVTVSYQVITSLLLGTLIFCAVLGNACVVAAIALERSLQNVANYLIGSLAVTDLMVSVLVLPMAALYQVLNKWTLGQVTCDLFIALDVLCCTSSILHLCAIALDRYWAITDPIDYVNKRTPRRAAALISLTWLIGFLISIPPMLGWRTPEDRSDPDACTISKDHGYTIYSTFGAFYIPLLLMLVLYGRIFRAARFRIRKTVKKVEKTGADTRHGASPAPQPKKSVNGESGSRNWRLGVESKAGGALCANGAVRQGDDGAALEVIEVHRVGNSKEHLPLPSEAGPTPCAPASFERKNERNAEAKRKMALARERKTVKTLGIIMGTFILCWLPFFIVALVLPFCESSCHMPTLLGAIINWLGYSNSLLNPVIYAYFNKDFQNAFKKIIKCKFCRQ
Nature of the assay: Radioligand binding, 5-HT1A ([3H]-8-OH-DPAT displacement).

For a further assay, the target named is 5-HT7 receptor (Homo sapiens, UniProt P34969). Nature of the assay: Radioligand binding, 5-HT7 ([3H]-5-CT displacement).
5-HT7 receptor, sequence (P34969 1-432 limits assumed): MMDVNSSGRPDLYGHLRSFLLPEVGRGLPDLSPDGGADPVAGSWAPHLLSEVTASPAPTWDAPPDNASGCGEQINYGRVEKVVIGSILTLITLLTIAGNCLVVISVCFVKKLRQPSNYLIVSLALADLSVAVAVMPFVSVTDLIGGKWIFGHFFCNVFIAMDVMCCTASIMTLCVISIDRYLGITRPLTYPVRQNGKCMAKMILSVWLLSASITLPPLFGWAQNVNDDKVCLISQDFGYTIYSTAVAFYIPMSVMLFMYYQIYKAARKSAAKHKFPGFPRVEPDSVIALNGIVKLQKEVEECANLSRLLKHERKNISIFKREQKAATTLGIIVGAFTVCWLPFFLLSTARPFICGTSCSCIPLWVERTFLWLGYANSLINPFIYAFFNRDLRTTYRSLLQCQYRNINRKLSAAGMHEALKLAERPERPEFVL
Another assay has as its target dopamine D2L receptor (Homo sapiens, UniProt P14416). Nature of the assay: Radioligand binding, D2 ([3H]-raclopride displacement).

dopamine D2L receptor, sequence (P14416 whole entry): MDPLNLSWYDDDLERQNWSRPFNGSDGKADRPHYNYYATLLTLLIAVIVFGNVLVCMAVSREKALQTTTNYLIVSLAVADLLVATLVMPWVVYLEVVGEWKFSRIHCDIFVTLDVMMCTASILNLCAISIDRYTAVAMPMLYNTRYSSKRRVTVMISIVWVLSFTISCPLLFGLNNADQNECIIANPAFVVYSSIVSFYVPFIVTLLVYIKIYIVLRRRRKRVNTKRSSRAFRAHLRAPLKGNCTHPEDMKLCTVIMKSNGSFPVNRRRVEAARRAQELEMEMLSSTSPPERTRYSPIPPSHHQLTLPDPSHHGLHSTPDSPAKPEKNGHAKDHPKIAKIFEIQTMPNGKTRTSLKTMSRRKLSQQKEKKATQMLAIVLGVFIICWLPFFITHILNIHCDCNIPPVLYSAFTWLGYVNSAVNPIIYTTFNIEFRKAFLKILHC
5-HT6 receptor, sequence (P50406 whole entry): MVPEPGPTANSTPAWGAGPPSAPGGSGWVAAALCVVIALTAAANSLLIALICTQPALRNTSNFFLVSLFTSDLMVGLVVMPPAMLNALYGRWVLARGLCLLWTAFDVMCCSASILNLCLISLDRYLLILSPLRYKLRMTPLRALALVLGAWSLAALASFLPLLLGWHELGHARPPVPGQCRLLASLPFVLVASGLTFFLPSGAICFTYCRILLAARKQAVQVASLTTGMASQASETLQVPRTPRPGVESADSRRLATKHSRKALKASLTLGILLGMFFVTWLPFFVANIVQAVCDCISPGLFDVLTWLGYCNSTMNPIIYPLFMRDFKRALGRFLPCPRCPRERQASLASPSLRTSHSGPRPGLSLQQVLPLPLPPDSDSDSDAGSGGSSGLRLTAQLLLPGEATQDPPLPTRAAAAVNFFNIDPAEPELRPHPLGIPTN

With “8-carbonitrile-1-(naphthalen-1-ylsulfonyl)-4-(piperazin-1-yl)-1H-pyrrolo[3,2-c]quinoline [Compound 67]”, at 5-HT6 receptor, the “displacement % at 10^−6M, 5-HT6” value is recorded as 100^c %.

Consider `O=S(=O)(c1cccc(Cl)c1)n1ccc2c(NC3CNC3)nc3ccccc3c21` [Compound 2, 1-((3-chlorophenyl)sulfonyl)-N-(azetidin-3-yl)-1H-pyrrolo[3,2-c]quinolin-4-amine], for which the “displacement % at 10^−6M, 5-HT6” value on 5-HT6 receptor is 98^c %.

As a reminder, the Ki is the dissociation constant of the complex between target and ligand, obtained from inhibition or displacement. With `O=S(=O)(c1ccccc1)n1ccc2c(NC3CCNC3)nc3ccccc3c21` (stereo not shown) [Compound 4, 1-(phenylsulfonyl)-N-(pyrrolidin-3-yl)-1H-pyrrolo[3,2-c]quinolin-4-amine], the results for the Ki at 5-HT6 receptor, on 5-HT1A receptor and on 5-HT7 receptor were 4 nM, 9150 nM and 7890 nM, respectively.

On to `O=S(=O)(c1cccc(F)c1)n1ccc2c(N[C@H]3CCNC3)nc3ccccc3c21` [Compound 9, (S)-1-((3-fluorophenyl)sulfonyl)-N-(pyrrolidin-3-yl)-1H-pyrrolo[3,2-c]quinolin-4-amine], for which the “displacement % at 10^−6M, 5-HT6” value on 5-HT6 receptor is 99^c %.

Regarding `O=S(=O)(c1cc(F)ccc1F)n1ccc2c(NC3CCNC3)nc3ccccc3c21` (stereo not shown) [Compound 12, 1-((2,5-difluorophenyl)sulfonyl)-N-(pyrrolidin-3-yl)-1H-pyrrolo[3,2-c]quinolin-4-amine], the Ki was 9 nM on 5-HT6 receptor, 7060 nM at 5-HT1A receptor and 5220 nM at 5-HT7 receptor.

Take `O=S(=O)(c1cccc(C(F)(F)F)c1)n1ccc2c(N[C@H]3CCNC3)nc3ccccc3c21` [Compound 15, (S)-1-((3-(trifluoromethyl)phenyl)sulfonyl)-N-(pyrrolidin-3-yl)-1H-pyrrolo[3,2-c]quinolin-4-amine]: at 5-HT6 receptor, the “displacement % at 10^−6M, 5-HT6” value is on record as 98^c %.

With `O=S(=O)(c1cccc(C(F)(F)F)c1)n1ccc2c(N[C@@H]3CCNC3)nc3ccccc3c21` [Compound 16, (R)-1-((3-(trifluoromethyl)phenyl)sulfonyl)-N-(pyrrolidin-3-yl)-1H-pyrrolo[3,2-c]quinolin-4-amine], the “displacement % at 10^−6M, 5-HT6” value on 5-HT6 receptor is 99^c %.

On to `CC(C)(C)c1ccc(S(=O)(=O)n2ccc3c(NC4CCNC4)nc4ccccc4c32)cc1` (stereo not shown) [Compound 17, 1-((4-(tert-butyl)phenyl)sulfonyl)-N-(pyrrolidin-3-yl)-1H-pyrrolo[3,2-c]quinolin-4-amine], for which the Ki at 5-HT6 receptor worked out at 101 nM; on 5-HT1A receptor, 6310 nM; on 5-HT7 receptor it was 1290 nM.

`Nc1ccc(S(=O)(=O)n2ccc3c(NC4CCNC4)nc4ccccc4c32)cc1` (stereo not shown) [Compound 18, 1-((4-aminophenyl)sulfonyl)-N-(pyrrolidin-3-yl)-1H-pyrrolo[3,2-c]quinolin-4-amine]: at 5-HT6 receptor, the “displacement % at 10^−6M, 5-HT6” value was 100^c %.

For the molecule `Nc1ccc(S(=O)(=O)n2ccc3c(N[C@H]4CCNC4)nc4ccccc4c32)cc1` [Compound 19, (S)-1-((4-aminophenyl)sulfonyl)-N-(pyrrolidin-3-yl)-1H-pyrrolo[3,2-c]quinolin-4-amine], on 5-HT6 receptor, the “displacement % at 10^−6M, 5-HT6” value is 100^c %.

Regarding `Nc1ccc(S(=O)(=O)n2ccc3c(N[C@@H]4CCNC4)nc4ccccc4c32)cc1` [Compound 20, (R)-1-((4-aminophenyl)sulfonyl)-N-(pyrrolidin-3-yl)-1H-pyrrolo[3,2-c]quinolin-4-amine], the “displacement % at 10^−6M, 5-HT6” value at 5-HT6 receptor was 99^c %.

`O=S(=O)(c1cccc(Cl)c1)n1ccc2c(NC3CCNC3)nc3cc(F)ccc3c21` (stereo not shown) [Compound 24, 7-fluoro-1-((3-chlorophenyl)sulfonyl)-N-(pyrrolidin-3-yl)-1H-pyrrolo[3,2-c]quinolin-4-amine]: the “displacement % at 10^−6M, 5-HT6” value on 5-HT6 receptor is listed as 95^c %.

For the molecule `O=S(=O)(c1cccc(Cl)c1)n1ccc2c(NC3CCNC3)nc3ccc(Cl)cc3c21` (stereo not shown) [Compound 25, 8-chloro-1-((3-chlorophenyl)sulfonyl)-N-(pyrrolidin-3-yl)-1H-pyrrolo[3,2-c]quinolin-4-amine], at 5-HT6 receptor, the “displacement % at 10^−6M, 5-HT6” value is 96^c %.

In the case of `CNC1CCN(c2nc3ccccc3c3c2ccn3S(=O)(=O)c2ccccc2)C1` (stereo not shown) [Compound 26, N-methyl-1-(1-(phenylsulfonyl)-1H-pyrrolo[3,2-c]quinolin-4-yl)pyrrolidin-3-amine], the “displacement % at 10^−6M, 5-HT6” value at 5-HT6 receptor is given as 90^c %.

Regarding `O=S(=O)(c1ccccc1)n1ccc2c(N3CCNCC3)nc3ccccc3c21` [Compound 27, 1-(phenylsulfonyl)-4-(piperazin-1-yl)-1H-pyrrolo[3,2-c]quinoline], the Ki on dopamine D2L receptor is 1130 nM; on 5-HT1A receptor, 298 nM.

In the case of `O=S(=O)(c1ccc(Cl)c(Cl)c1)n1ccc2c(N3CCNCC3)nc3ccccc3c21` [Compound 34, 1-((3,4-dichlorophenyl)sulfonyl)-4-(piperazin-1-yl)-1H-pyrrolo[3,2-c]quinoline], the Ki was 1550 nM at dopamine D2L receptor and 1980 nM at 5-HT7 receptor.

Regarding `O=S(=O)(c1cccc(C(F)(F)F)c1)n1ccc2c(N3CCNCC3)nc3ccccc3c21` [Compound 35, 1-((3-(trifluoromethyl)phenyl)sulfonyl)-4-(piperazin-1-yl)-1H-pyrrolo[3,2-c]quinoline], the Ki on dopamine D2L receptor stood at 2630 nM; at 5-HT7 receptor, 6390 nM.

`CC(C)(C)c1ccc(S(=O)(=O)n2ccc3c(N4CCNCC4)nc4ccccc4c32)cc1` [Compound 41, 1-((4-(tert-butyl)phenyl)sulfonyl)-4-(piperazin-1-yl)-1H-pyrrolo[3,2-c]quinoline]: the inhibition constant Ki was determined as 1680 nM at dopamine D2L receptor, 41 nM on 5-HT6 receptor and 8450 nM on 5-HT7 receptor.

Regarding `O=S(=O)(c1ccc2ccccc2c1)n1ccc2c(N3CCNCC3)nc3ccccc3c21` [Compound 44, 1-(naphthalen-2-ylsulfonyl)-4-(piperazin-1-yl)-1H-pyrrolo[3,2-c]quinoline], the “displacement % at 10^−6M, 5-HT6” value at 5-HT6 receptor is recorded as 99^c %.

As for `O=S(=O)(c1ccc(Cl)s1)n1ccc2c(N3CCNCC3)nc3ccccc3c21` [Compound 46, 1-((5-chlorothiophen-2-yl)sulfonyl)-4-(piperazin-1-yl)-1H-pyrrolo[3,2-c]quinoline], the Ki at dopamine D2L receptor was 817 nM; on 5-HT6 receptor, 8 nM; at 5-HT1A receptor, 590 nM.

Regarding `Cc1ccc2sc(S(=O)(=O)n3ccc4c(N5CCNCC5)nc5ccccc5c43)cc2c1` [Compound 47, 1-((5-methylbenzo[b]thiophen-2-yl)sulfonyl)-4-(piperazin-1-yl)-1H-pyrrolo[3,2-c]quinoline], the Ki at dopamine D2L receptor stood at 1560 nM; on 5-HT6 receptor, 28 nM; on 5-HT7 receptor it was 2960 nM.

Take `Clc1cccc(Cn2ccc3c(N4CCNCC4)nc4ccccc4c32)c1` [Compound 49, 1-(3-chlorobenzyl)-4-(piperazin-1-yl)-1H-pyrrolo[3,2-c]quinoline]: the Ki at 5-HT1A receptor is 3260 nM; at 5-HT7 receptor, 3270 nM.

As for `O=C(c1cccc(Cl)c1)n1ccc2c(N3CCNCC3)nc3ccccc3c21` [Compound 51, (3-chlorophenyl)-(4-(piperazin-1-yl)-1H-pyrrolo[3,2-c]quinolin-1-yl)methanone], the “displacement % at 10^−6M, 5-HT6” value at 5-HT6 receptor is given as 90^C %.

Turning to `CN1CCN(c2nc3ccccc3c3c2ccn3S(=O)(=O)c2ccc(F)cc2)CC1` [Compound 56, 1-((4-fluorophenyl)sulfonyl)-4-(4-methylpiperazin-1-yl)-1H-pyrrolo[3,2-c]quinoline], the Ki at dopamine D2L receptor was 393 nM; at 5-HT1A receptor, 152 nM.

With `CN1CCN(c2nc3ccccc3c3c2ccn3S(=O)(=O)c2cccc3ccccc23)CC1` [Compound 58, 1-(naphthalen-1-ylsulfonyl)-4-(4-methylpiperazin-1-yl)-1H-pyrrolo[3,2-c]quinoline], the Ki was 826 nM at dopamine D2L receptor, 36 nM on 5-HT6 receptor and 211 nM on 5-HT1A receptor.

Turning to `CC(C)c1ccc(S(=O)(=O)n2ccc3c(N4CCNCC4)nc4ccc([N+](=O)[O-])cc4c32)cc1` [Compound 63, 8-nitro-1-((4-isopropylphenyl)sulfonyl)-4-(piperazin-1-yl)-1H-pyrrolo[3,2-c]quinoline], at 5-HT6 receptor, the “displacement % at 10^−6M, 5-HT6” value is 86^c %.

On to `Nc1ccc2nc(N3CCNCC3)c3ccn(S(=O)(=O)c4ccc(Cl)c(Cl)c4)c3c2c1` [Compound 65, 8-amino-1-((3,4-dichlorophenyl)sulfonyl)-4-(piperazin-1-yl)-1H-pyrrolo[3,2-c]quinoline], for which, at 5-HT6 receptor, the “displacement % at 10^−6M, 5-HT6” value is recorded as 90^c %.

As for `O=S(=O)(c1cccc2ccccc12)n1ccc2c(N3CCNCC3)nc3ccc(Cl)cc3c21` [Compound 71, 8-chloro-1-(naphthalen-1-ylsulfonyl)-4-(piperazin-1-yl)-1H-pyrrolo[3,2-c]quinoline], the “displacement % at 10^−6M, 5-HT6” value at 5-HT6 receptor was 98^c %.

Turning to `O=S(=O)(c1cccc(Cl)c1)n1ccc2c(N3CCCNCC3)nc3ccccc3c21` [Compound 75, 1-((3-chlorophenyl)sulfonyl)-4-(1,4-diazepan-1-yl)-1H-pyrrolo[3,2-c]quinoline], the “displacement % at 10^−6M, 5-HT6” value at 5-HT6 receptor is given as 100^c %.

As for `O=S(=O)(c1cccc2cccnc12)n1ccc2c(N3CCOCC3)nc3ccccc3c21` [Compound 79, 1-(quinolin-8-ylsulfonyl)-4-(morpholine-4-yl)-1H-pyrrolo[3,2-c]quinoline], the values for the Ki at dopamine D2L receptor, on 5-HT6 receptor and at 5-HT7 receptor were 1230 nM, 95 nM and 3420 nM, respectively.

`O=S(=O)(c1cc(F)ccc1F)n1ccc2c(OC3CCNC3)nc3ccccc3c21` (stereo not shown) [Compound 81, 1-((2,5-difluorophenyl)sulfonyl)-4-(pyrrolidin-3-yloxy)-1H-pyrrolo[3,2-c]quinoline]: the “displacement % at 10^−6M, 5-HT6” value at 5-HT6 receptor was 96^c %.
